Reference: PubChem BioAssay (NCI)
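Interpolation was linear, between the two tested concentrations surrounding the appropriate level; five concentrations were tested over 48 hours in 96-well plates. TGI: concentration producing complete growth inhibition.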

Experiments:
Test in all cases: NCI tumour cell line growth inhibition, 48 h
[1] = test system: SK-MEL-28 melanoma
[2] = test system: MOLT-4 leukemia
[3] = test system: 786-0 renal
[4] = test system: NCI-H226 lung
[5] = test system: SNB-19 CNS
[6] = test system: PC-3 prostate
[7] = test system: A498 renal
[8] = test system: RPMI-8226 leukemia
[9] = test system: CAKI-1 renal
[10] = test system: UO-31 renal
[11] = test system: HL-60(TB) leukemia
[12] = test system: HOP-92 NSCLC

Row | Compound | TGI [1] | TGI [2] | TGI [3] | TGI [4] | TGI [5] | TGI [6] | TGI [7] | TGI [8] | TGI [9] | TGI [10] | TGI [11] | TGI [12]
1 | COC(=O)c1c(O)ccc2c1c1c(n2Cc2cc(OC)cc(OC)c2)C(=O)c2ccccc2C1 | 60.9 µM | > 100 µM | > 100 µM | > 100 µM | > 100 µM | 49.1 µM | > 100 µM | 36.2 µM | 63.7 µM | > 100 µM | > 100 µM | 
2 | CC(=O)c1ccccc1NP(=O)(c1ccccc1)c1ccccc1 | > 100 µM | > 100 µM | > 100 µM |  | > 100 µM | > 100 µM | > 100 µM | 62.8 µM | > 100 µM | > 100 µM | 87.7 µM | 
3 | O=[N+]([O-])c1ccc(CN(CCCl)OCCCl)cc1 | > 100 µM | > 100 µM | > 100 µM | > 100 µM | > 100 µM | > 100 µM |  | > 100 µM | > 100 µM | > 100 µM | > 100 µM | 
4 | CC(=O)Nc1ccc(N=Nc2c(O)c(S(=O)(=O)O)cc3cc(S(=O)(=O)O)ccc23)cc1 | > 100 µM |  | > 100 µM | > 100 µM | > 100 µM | > 100 µM |  | > 100 µM | > 100 µM | > 100 µM |  | > 100 µM
5 | CCCCCCNc1n[nH]c(=O)c2c1nnn2Cc1ccccc1 | > 100 µM | > 100 µM | > 100 µM |  | > 100 µM | > 100 µM |  | > 100 µM | > 100 µM | > 100 µM | > 100 µM | > 100 µM
6 | COc1cccc(C(=O)Oc2ccc(OS(=O)(=O)c3ccc(C)cc3)cc2)c1C#N | > 100 µM | > 100 µM | > 100 µM | > 100 µM | > 100 µM | > 100 µM |  | > 100 µM | > 100 µM | > 100 µM | > 100 µM | > 100 µM
7 | O=C(N/N=C(\c1ccccc1)c1ccccn1)NC1CCCCC1 | > 100 µM | > 100 µM | > 100 µM | 83.2 µM | > 100 µM | > 100 µM |  | > 100 µM | > 100 µM | > 100 µM |  | > 100 µM
8 | Cc1ccc(-n2cnc(C(=N)C#N)c2N)cc1 | > 100 µM | > 100 µM | > 100 µM | > 100 µM | > 100 µM | > 100 µM | > 100 µM | > 100 µM | > 100 µM | > 100 µM | > 100 µM | 
9 | C[C@H]1[C@H]2[C@H]3CC[C@@H]4[C@@]5(C)CC[C@H](O)C(C)(C)[C@@H]5CC[C@@]4(C)[C@]3(C)C[C@H](O)[C@@]2(C)C[C@H]2O[C@]21C | 36.9 µM | > 100 µM | 45.1 µM |  | 49.7 µM | 27.1 µM | 38.7 µM | > 100 µM | 69.8 µM |  | > 100 µM | 56.2 µM
10 | N#Cc1n[nH]n(-c2ccc(Br)cc2)c1=O | > 100 µM |  | > 100 µM | > 100 µM | > 100 µM | > 100 µM | > 100 µM | > 100 µM | > 100 µM | > 100 µM | > 100 µM | 
11 | CCN(CC)Cc1ccc(C(=S)Nc2ccc(Cl)cc2)s1 | 20.8 µM | 34.4 µM | 26.4 µM |  | 31.6 µM | 28.6 µM | 25.8 µM | 39.6 µM | 26.2 µM | 23.5 µM | 10.5 µM | 
12 | CCO/C(O)=C(/C(=N)N1CCOCC1)C(=O)Nc1ccc(F)cc1 | > 100 µM | > 100 µM | > 100 µM | > 100 µM | > 100 µM | > 100 µM | > 100 µM | > 100 µM | > 100 µM |  | > 100 µM | 
13 | CCN(CC)CCNc1ccc2nnn3c4ccc(OCCN(CC)CC)cc4c(=O)c1c23 | > 100 µM | 39 µM | > 100 µM |  | > 100 µM |  | > 100 µM | > 100 µM | > 100 µM | > 100 µM |  | > 100 µM
14 | COc1cc(OC)c2nc(C)c(CCCl)c(Cl)c2c1 | > 100 µM | > 100 µM | > 100 µM | > 100 µM | > 100 µM | > 100 µM | > 100 µM | > 100 µM | > 100 µM | > 100 µM | > 100 µM | 
15 | Cc1ccc(S(=O)(=O)c2[nH]cc(/C(=C\C3CCCCC3)[N+](=O)[O-])c2C2CCCCC2)cc1 | 2.75 µM | 0.94 µM | 0.442 µM | 9.9 µM | 3.98 µM | 2.53 µM | 0.837 µM | 0.715 µM | 0.531 µM | 1.32 µM |  | 3.99 µM
16 | c1ccc(N=C(N2CCCC2)N(CCN2CCCC2)c2ccccc2)cc1 | > 100 µM | > 100 µM | > 100 µM | > 100 µM | > 100 µM | > 100 µM |  | > 100 µM | > 100 µM | > 100 µM | > 100 µM | > 100 µM
17 | COc1cc2c(cc1OC)C(CC1=C(c3ccccc3)CN3CCc4cc(OC)c(OC)cc4C3C1)NCC2 (stereo not given) | 28.5 µM | 29.5 µM | 29.5 µM | 37.2 µM | 38.8 µM |  | 33.2 µM | 28.8 µM | 44.6 µM | 23.4 µM | 28.6 µM | 
18 | O=C1c2ccccc2C(=O)c2c(NCC(O)CO)ccc(NCC(O)CO)c21 (stereo not given) | > 100 µM | > 100 µM | > 100 µM | > 100 µM | > 100 µM | > 100 µM | > 100 µM | > 100 µM | > 100 µM | 71.2 µM | > 100 µM | 
19 | O=c1[nH]cnc2c1cnn2Cc1cn(CCCCO)nn1 | > 100 µM | > 100 µM | > 100 µM | > 100 µM | > 100 µM | > 100 µM | > 100 µM | > 100 µM | > 100 µM | > 100 µM |  | > 100 µM
20 | COC(=O)/C=C(\C(=O)OC)C1C(=O)Oc2c(C)c(=O)c3ccccc3n21 (stereo not given) | > 100 µM | > 100 µM | > 100 µM | > 100 µM | > 100 µM | > 100 µM |  | > 100 µM | > 100 µM |  | > 100 µM | 
